“Also recorded” adds a separate entry of the source.
Tests used:
[1] = target: Nluc in HeLa cells (Oplophorus gracilirostris, UniProt Q9GV45, A31E/A60N/A81I/F95D/I117V/K70R/L54V/L99Q/M102K/N193R/P142E/Q151K/Q38R/Q45L/V71I/Y165I); experiment: Inhibition of Nluc luciferase in cells (FIG. 2A); conditions: 2 hours at 37° C., furimazine 190 μM
Description: (§4) HeLa cells were reverse transfected with expression constructs for Nluc or Nluc-HT, plated (20,000 cells/100 μL growth medium) and incubated for 24 hours. […] HeLa cells were reverse transfected with expression constructs for Nluc or Nluc-HT, plated (20,000 cells/100 μL growth medium), and incubated for 24 hours.

[2] = target: Nluc-HT-TMR (Nluc-HT conjugated to TMR chloroalkane) (Oplophorus gracilirostris, UniProt Q9GV45, A31E/A60N/A81I/F95D/I117V/K70R/L54V/L99Q/M102K/N193R/P142E/Q151K/Q38R/Q45L/V71I/Y165I); experiment: Inhibition of Nluc luciferase by JRW-0308 (FIG. 1); conditions: 0.05 nM protein in PBS/0.05% BSA, 2 hours at room temperature, furimazine 10 μM
Sequence of Nluc-HT-TMR (Nluc-HT conjugated to TMR chloroalkane) (Q9GV45 28-196 with tags or gaps with the stated changes limits assumed): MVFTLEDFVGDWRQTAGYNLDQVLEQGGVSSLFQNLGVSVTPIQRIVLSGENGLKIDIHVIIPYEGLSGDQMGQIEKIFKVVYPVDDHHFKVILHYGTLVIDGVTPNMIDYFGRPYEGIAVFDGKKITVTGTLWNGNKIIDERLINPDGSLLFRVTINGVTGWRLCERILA
Description: (§5) Samples were analyzed after addition of furimazine (10 μM final concentration) using a BMG Clariostar plate reader.

[3] = target: T1, NanoLuc (Oplophorus gracilirostris, UniProt Q9GV45, A31E/A60N/A81I/F95D/I117V/K70R/L54V/L99Q/M102K/N193R/P142E/Q151K/Q38R/Q45L/V71I/Y165I); experiment: Inhibitor IC50 determination; assay type: biochemical
T1 sequence (Q9GV45 28-196 with tags or gaps with the stated changes limits assumed): as above
Description: The following example provides the IC50 values for the compounds disclosed herein. NANOLUC® enzyme was diluted to 0.4 ng/ml in CO2 independent media+10% FBS to make the detection reagent. A 3× dilution series of each inhibitor was then made in the detection reagent. A “no inhibitor” control was also made for each sample. 50 ul of each inhibitor dilution was mixed with 50 ul of NanoGlo® buffer containing 20 μM furimazine (final furimazine concentration is 10 μM, which is at Km.), and luminescence was measured. Each sample was normalized to the “no inhibitor” control. The IC50 values were then determined using GraphPad Prism (log[inhibitor] vs. normalized response).

[4] = target: Nluc-HT-618 in HeLa cells (Oplophorus gracilirostris, UniProt Q9GV45, A31E/A60N/A81I/F95D/I117V/K70R/L54V/L99Q/M102K/N193R/P142E/Q151K/Q38R/Q45L/V71I/Y165I); experiment: Inhibition of Nluc luciferase in cells (FIG. 2B); conditions: HeLa cells pre-labelled with 500 nM NanoBRET 618 ligand, 2 hours at 37° C., furimazine 190 μM
Sequence of Nluc-HT-618 in HeLa cells (Q9GV45 28-196 with tags or gaps with the stated changes limits assumed): as above
Description: as §4

[5] = target: Nluc (Oplophorus gracilirostris, UniProt Q9GV45, A31E/A60N/A81I/F95D/I117V/K70R/L54V/L99Q/M102K/N193R/P142E/Q151K/Q38R/Q45L/V71I/Y165I); experiment: Inhibition of Nluc luciferase by JRW-0308 (FIG. 1); conditions: 0.05 nM protein in PBS/0.05% BSA, 2 hours at room temperature, furimazine 10 μM
Sequence of Nluc (Q9GV45 28-196 with tags or gaps with the stated changes limits assumed): as above
Description: as §5

[6] = tested on: Nluc-HT fusion protein in HeLa cells; experiment: Inhibition of Nluc luciferase in cells (FIG. 2A, 2B); assay type: cell-based; conditions: 2 hours at 37° C., furimazine 190 μM
[7] = tested on: Nluc-HT fusion protein; experiment: Inhibition of Nluc luciferase by JRW-0308 (FIG. 1); assay type: biochemical; conditions: 0.05 nM protein in PBS/0.05% BSA, 2 hours at room temperature, furimazine 10 μM
[8] = tested on: NanoBiT (LgBiT and HaloTag-HiBiT); experiment: Multiplexing luciferases with the same wavelength (FIG. 11); assay type: biochemical; conditions: 100 uM JRW-0552 solution; LgBiT 200 nM, HaloTag-HiBiT 0.2 nM added after 50 minutes
Description: (§1) Three conditions are represented in this figure: 1) NanoLuc with JRW-0552; 2) NanoLuc and HiBiT with JRW-0552; and 3) NanoLuc and LgBiT with JRW-0552. At the 50 minute mark, an addition is done in each condition: 1) furimazine; 2) furimazine; and 3) LgBiT, furimazine, and HiBiT, respectively.
(§2) The following solutions were prepared in TBS+20 uM furimazine: 1) 0.4 ng/ml NanoLuc, 2) 0.4 ng/ml NanoLuc+0.2 nM HaloTag-HiBiT, 3) 0.4 ng/ml NanoLuc+200 nM LgBiT. 50 ul of each solution was combined in triplicate with a solution containing 100 uM JRW-0552 diluted into NanoGlo® buffer.
(§3) After 50 minutes, 100 ul of the following solutions were added to the corresponding samples: 1) NanoGlo® buffer+50 uM furimazine, 2) NanoGlo® buffer+50 uM furimazine+200 nM LgBiT, 3) NanoGlo® buffer+50 uM furimazine+0.2 nM HaloTag-HiBiT.

[9] = target: T1, NanoLuc; experiment: as above; assay type: biochemical; conditions: 100 uM JRW-0552 solution in NanoGlo buffer, 0.4 ng/ml NanoLuc, kinetic read
Description: as §1, §2, §3

[10] = tested on: Cetux-Fab-Nluc; experiment: EGFR/Cetuximab binding assay with inhibitor and PBS wash (FIG. 9); assay type: biochemical; conditions: 1 μM inhibitor for 5 or 30 minutes, PBS wash 0, 10, 30, or 60 minutes, furimazine 10 μM
Description: Cetux-Fab-Nluc competes with Cetuximab for binding of EGFR. […] Following the first reading, 1 μM inhibitor is added for a period of 5 minutes or 30 minutes. The plates were subsequently washed with PBS for 0, 10, 30, or 60 minutes.

[11] = target: T1, NanoLuc; experiment: Suicide inhibition: displacement of inhibitor by furimazine upon dilution (FIG. 7); conditions: 10 μM Nluc + 10 μM inhibitor 30 minutes at RT, diluted to 10 pM, furimazine 10 uM
Description: Following dilution, 50 ul of the dilution was combined with 50 ul of NanoGlo® assay buffer.
Following dilution, 50 ul of the dilution was combined with 50 ul of NanoGlo® assay buffer. Final furimazine concentration was 10 uM.

[12] = target: T1, NanoLuc; conditions: inhibitor diluted to 3 uM, NanoLuc 0.4 ng/ml, 100 uM furimazine, read at two minute intervals
Description: Inhibitors were diluted to 3 uM into OptiMEM+0.1% FBS. NanoLuc was diluted to 0.4 ng/ml into NanoGlo® buffer+100 uM furimazine. 50 ul of each inhibitor was added to 50 ul of the NanoLuc/furimazine/NanoGlo® solution. Samples were immediately placed in a GloMax Multi+ set to read in kinetic mode at two minute intervals.
Inhibitors were diluted to 3 uM into OptiMEM+0.1% FBS. NanoLuc was diluted to 0.4 ng/ml into NanoGlo® buffer+100 uM furimazine. 50 ul of each inhibitor was added to 50 ul of the NanoLuc/furimazine/NanoGlo® solution. Samples were immediately placed in a GloMax® Multi+ set to read in kinetic mode at two minute intervals.

Sequence of Nluc in HeLa cells (Q9GV45 28-196 with tags or gaps with the stated changes limits assumed): as above

SMILES | inhibition of Nluc in cells [1] | inhibition of Nluc-HT-TMR [2] | IC50 [3] [nM] | inhibition of Nluc-HT-618 in cells [4] | inhibition of Nluc alone [5] | inhibition of Nluc-HT fusion protein in cells [6] | inhibition of Nluc-HT fusion protein [7] | activity of NanoBiT configurations in presence of inhibitor [8] | inhibition of NanoLuc signal [9] | reversibility of inhibition after PBS wash [10] | displacement of inhibitor by furimazine upon dilution [11] | reversibility of Nluc inhibition [11] | Nluc inhibition over time (kinetic light output) [12]
CCN(C(=O)Cn1c(C(=O)N[C@H]2CC[C@H](C(=O)NCCCCCCNC(=O)OCCOCCOCCOC(=O)NCCOCCOCCCCCCCl)CC2)cc2sccc21)c1cccc(C)c1 [JRW-0308] | higher concentrations are required | higher concentrations are required | 22 | higher concentrations of JRW-0308 are necessary | higher concentrations are required | potently inhibits | potently inhibits | – | – | – | – | – | –
CCN(C(=O)Cn1c(C(=O)N[C@H]2CC[C@H](C(=O)NCCCCCCCC(=O)ON3C(=O)CCC3=O)CC2)cc2sccc21)c1cccc(C)c1 [JRW-0552] | – | – | 2.9 | – | – | – | – | remain operational | selectively inhibits | irreversible | not displaced | irreversible inhibition; also recorded: irreversibly inhibit | time dependent inhibition

From patent US10815247B2, “Functionalized NANOLUC inhibitors” (PROMEGA CORPORATION, priority 2016, dated 2020)
